Experimental data published in patent publication US20120065261A1, “Creatine compositions for skin treatment” (Avicena Group, Inc., priority 2006, published 2012).

What was measured:
[1] = system: Clostridium collagenase IV; assay: Metalloproteinase (collagenase) activity, Enzcheck kit with quenched fluorescent gelatin; format: biochemical; conditions: after incubation of 60 minutes
Method: Metalloproteinase (collagenase) activity was measured with Enzcheck kit from Molecular Probes using quenched fluorescent gelatin and Clostridium collagenase IV, a generic collagenase. Creatine ascorbate, creatine monohydrate, creatine pyruvate, ascorbic acid and magnesium ascorbyl phosphate, in concentrations of 1000 μg/mL, 100 μg/mL and 10 μg/mL, were incubated in the presence of a collagenase substrate (quenched fluorescing-linked gelatin) and in the presence of the proteolytic enzyme. Phenantroline, a potent metalloproteinase inhibitor was used as a positive control. The kinetics of the release of the digested, fluorescent gelatin were measured at excitation/emission wavelengths of 485/530 nm.

[2] = Stability of aqueous solutions at pH 4.0 (HPLC); format: physicochemical; conditions: 10 mg/mL, pH 4.0, 5 days at room temperature
Method: Aqueous solutions of 10 mg/mL of creatine ascorbate, creatine monohydrate, creatine pyruvate, ascorbic acid and magnesium ascorbyl phosphate were prepared in Type I water and brought to pH 4.0 (±0.1) by adding acetic acid (creatine ascorbate, creatine monohydrate and magnesium ascorbyl phosphate) or sodium hydroxide (ascorbic acid and creatine pyruvate). The solutions were incubated for 5 days at room temperature and were subsequently lyophilized, redissolved within 60 minutes of analysis and analyzed by isocratic HPLC on a C18 RF column (250 mm×4.6 mm) at 1 mL/min.

human dermal fibroblasts = assay: Mitochondrial metabolism in human dermal fibroblast cultures (MTT assay); format: cell-based; conditions: for inhibition of mitochondrial metabolism / stimulatory effect on mitochondrial metabolism / stimulation of mitochondrial metabolism: freshly prepared; for inhibition of mitochondrial metabolism: 100 μg/mL and 1000 μg/mL; for stimulatory effect on mitochondrial metabolism: concentrations tested; for effect on mitochondrial metabolism: preincubated solutions (pH 4.0, five days)
Method: The purpose of this assay was to determine the effect creatine ascorbate, creatine monohydrate and creatine pyruvate on the mitochondrial metabolism on the entire cell culture using an MTT assay. The MTT assay measures the activity of succinate dehydrogenase, a key enzyme in the respiratory electron transport chain in mitochondria.
Two sets of aqueous solutions of 10 mg/mL of creatine ascorbate, creatine monohydrate, creatine pyruvate, ascorbic acid and magnesium ascorbyl phosphate were prepared in Type I water. The first set of solutions were prepared immediately before being added to cell cultures. The second set of solutions were preincubated at pH 4.0 (±0.1) five days, then the solutions were lyophilized and the substrates were redissolved in water at 10 mg/mL prior to being added to the cell cultures. Normal human dermal fibroblasts (passage 5, lot number 7F1254, Cambrex, Walkersville, Md.) were seeded in a 96-well plate in phenol red-free DMEM medium (high glucose) containing 2.5% fetal calf serum at 2500 cells per well and test materials, both freshly prepared solutions and preincubated solutions, were added 24 hours later. At the end of the incubation period MTT (3-(4,5-dimethylthiazol-2-yl)-2,5-diphenyltetrazolium bromide) was added to the cell cultures and incubation was pursued for an additional three hours. Culture media were then discarded, the cells were rinsed and the intracellular MTT reduction product, formazan, was solubilized in ethanol/acetic acid. The colorimetric signal proportional to the mitochondrial activity in the cell cultures was measured with a microplate spectrophotometer at 570 nm. For references describing this method, see Berridge et al. “Arch. Biochem. Biophys.” 303:474-482 (1993) and Murimaki et al. “Biochem. Pharmacol.” 44:2191-2197 (1992).

[3] = system: p53 expression in human dermal fibroblasts; assay: p53 expression induced by UVB irradiation of human dermal fibroblasts (sandwich ELISA); format: cell-based; conditions: 50 μg/ml; UVB 0.15 mW/cm^2; 4 hours accumulation
Method: Confluent human dermal fibroblasts were trypsinized, counted and plated at 750,000 cells/well in eight 6-well plates in phenol-free DMEM medium (4 g/L glucose) supplemented with 5% serum. After three hours, creatine ascorbate, creatine monohydrate, creatine pyruvate, ascorbic acid and magnesium ascorbyl phosphate in a concentration of 50 μg/ml were added and cells were incubated overnight at 37° C. in 5% CO2 atmosphere. After 24 hours, p53 protein was induced by UVB irradiation at 0.15 mW/cm^2 for […] and was allowed to accumulate for 4 hours. The cells were then lyzed and total p53 was quantified by sandwich ELISA. The p53 values were standardized with regard to total protein values determined with Bradford reagent. For a description of this assay, see Carlisle et al. “Toxicological Sciences” 55:60 (2000).

[4] = system: type I collagen levels in human dermal fibroblasts; assay: Type I collagen in human dermal fibroblast conditioned medium (sandwich ELISA); format: cell-based; conditions: for levels of type I collagen: freshly prepared solutions
Method: Normal human dermal fibroblasts (passage 5, lot number 7F1245, Cambrix, Walkersville, Md.) were seeded in a 96-well plate in DMEM medium (high glucose) containing 5% fetal calf serum and grown to late subconfluent stage. Two sets of aqueous solutions of 10 mg/mL of creatine ascorbate, creatine monohydrate, creatine pyruvate, ascorbic acid and magnesium ascorbyl phosphate were prepared in Type I water. The first set of solutions were prepared immediately before being added to cell cultures. The second set of solutions were preincubated at pH 4.0 (±0.1) five days, then the solutions were lyophilized and the substrates were redissolved in water at 10 mg/mL prior to being added to the cell cultures. Both the freshly prepared solutions and the solutions of preincubated test materials were administered to the cells, and cell culture conditioned media was harvested 5 days after the start of the experiment and tested for type I collagen by sandwich ELISA using affinity purified antibodies, followed by streptavidin-avidin-HRP conjugate and ABTS, according to standard ELISA protocol. The colorimetric signal proportional to collagen content was measured with a microplate spectrophotometer at 405 nm. For references describing this method, see Dobek et al. “J. Dermatol. Sci.” 8:18 (1994) and Zhao et al. “Phytomedicine” 12:132 (2005).

Mushroom tyrosinase = assay: Tyrosinase activity in vitro (L-Dopa substrate); format: biochemical; conditions: for inhibition of tyrosinase activity compared to the control: 5 μg/mL
Method: Tyrosinase activity was measured according to the method described by Pomerantz “Biochem. Biophys. Res. Commun.” 16(2):188-194 (1964). Mushroom tyrosinase stock solution was prepared in PBS at 2000 U/mL and stored at […] in 1 mL aliquots. Final concentration was 5 U/well (25 U/mL). Creatine ascorbate, creatine monohydrate, creatine pyruvate, ascorbic acid and magnesium ascorbyl phosphate were dissolved in PBS and further dilutions were made with Type I water. L-Dopa stock solution was 20 mM. The tyrosinase substrate was prepared in PBS. The assays were performed in a 96-well microtiter plates and read at 490 nm.

[5] = system: UV-induced lipid peroxidation; assay: UV-induced lipid peroxidation of lecithin dispersions (TBARS); format: biochemical; conditions: 500 μg/mL; UVB irradiation 3 hours
Method: Test materials were added to dispersions of lecithin (a natural phospholipid) and irradiated with UVB light (11,000 μW/cm^2 at the source). After 3 hours, trichloroacetic acid and thiobarbituric acids were added and the concentration of Thiobarbituric Acid Reactive Substance (TBARS), such as malondialdehyde, was measured spectroscopically (malonaldehyde is a breakdown product generated spontaneously from oxidized lipid) at 550 nm using an UV microplate reader. For references describing this method, see Pelle et al. “Arch. Biochem. Biophys.” 283:234-40 (1990); Wang et al. “J. Ethnopharmacol.” 82:169-175 (2002).

[6] = highest concentration, 1000 μg/mL

With O=C1O[C@H]([C@@H](O)CO)C(O)=C1O [ascorbic acid, reference compound] the “inhibition of collagenase activity compared to the control” value [1] was 39%, the “loss of the absorbance peak / decrease of absorption” value [2] was 28% and the “inhibition of mitochondrial metabolism” value (human dermal fibroblasts) was “inhibited mitochondrial metabolism”. The “stimulatory effect on mitochondrial metabolism” value (from here on “stimulatory effect”) (human dermal fibroblasts) was “did not have a stimulatory effect”, the “inhibitory effect on mitochondrial metabolism” value (human dermal fibroblasts; preincubated, concentration not given) was 24% and the “effect on p53 expression induced by UVB irradiation” value (shortened to “effect on p53 expression induced”) [3] was “no effect”.
For CN(CC(=O)O)C(=N)N.O [creatine monohydrate], the “levels of type I collagen” value ([4]; 10 μg/mL and 100 μg/mL) was “moderately increased”, the “levels of type I collagen” value [4, 6] was “better than creatine ascorbate and ascorbic acid” and the “inhibition of collagenase activity compared to the control” value [1] was “Neither creatine monohydrate nor magnesium ascorbyl phosphate showed any inhibitory activity”. For the same compound, the “stimulation of mitochondrial metabolism” value (human dermal fibroblasts; 10 μg/mL) was 0%, the “stimulation of mitochondrial metabolism” value (human dermal fibroblasts; 100 μg/mL) was 15% and the “stimulation of mitochondrial metabolism” value (human dermal fibroblasts; 1000 μg/mL) was 28%. For the same compound, the “effect on mitochondrial metabolism” value (human dermal fibroblasts) was “stimulated mitochondrial metabolism, although not to the extent of the freshly prepared creatine monohydrate” and the “effect on p53 expression induced” value [3] was “significantly inhibited”.
With O=C1O[C@H]([C@@H](O)CO)C([O-])=C1OP(=O)([O-])[O-].O=C1O[C@H]([C@@H](O)CO)C([O-])=C1OP(=O)([O-])[O-].[Mg+2].[Mg+2].[Mg+2] [magnesium ascorbyl phosphate, reference compound] the “levels of type I collagen” value ([4]; all concentrations, 5 days) was “large increase”, the “stimulation of type I collagen” value ([4]; results of both assays (fresh and preincubated)) was “strong stimulation” and the “inhibition of collagenase activity compared to the control” value [1] was “Neither creatine monohydrate nor magnesium ascorbyl phosphate showed any inhibitory activity”. The “stimulatory effect” value (human dermal fibroblasts) was “greatest stimulatory activity”, the “effect on mitochondrial metabolism” value (human dermal fibroblasts) was “exhibited stimulation” and the “effect on p53 expression induced” value [3] was “significantly inhibited”.
With creatine ascorbate the “stimulation of type I collagen compared with reference substances” value ([4]; 100 μg/mL) was “comparable to that of magnesium ascorbyl phosphate and better than ascorbic acid”, the “stimulation of type I collagen levels above the non-treated control (water)” value ([4]; dose-dependent, conclusion of both assays (fresh and preincubated)) was “about 50%” and the “levels of type I collagen” value ([4]; 10 μg/mL and 100 μg/mL) was “significantly increased”. For the same compound, the “levels of type I collagen” value [4, 6] was “significantly lower”, the “inhibition of collagenase activity compared to the control” value [1] was 11.5% and the “degradation in aqueous solution” value [2] was “minor to no degradation”. For the same compound, the “tyrosinase inhibitory activity compared with reference substances” value (Mushroom tyrosinase) was “lower than the activity of ascorbic acid and was similar to the activity of magnesium ascorbyl phosphate”, the “inhibition of tyrosinase activity compared to the control” value (Mushroom tyrosinase) was 26% and the “inhibitory effect on the tyrosinase activity” value (Mushroom tyrosinase; 500 μg/mL and 50 μg/mL) was “significant inhibitory effect”. For the same compound, the “inhibition of mitochondrial metabolism” value (human dermal fibroblasts) was “inhibited mitochondrial metabolism”, the “stimulatory effect” value (human dermal fibroblasts) was “did not have a stimulatory effect” and the “effect on mitochondrial metabolism” value (human dermal fibroblasts) was “superior to preincubated ascorbic acid”. For the same compound, the “inhibition of lipid peroxidation” value [5] was 21% and the “effect on p53 expression induced” value [3] was “significantly inhibited”.
In the case of creatine pyruvate, the “levels of type I collagen” value ([4]; 10 μg/mL and 100 μg/mL) is reported as “moderately increased”, the “levels of type I collagen” value [4, 6] is reported as “better than creatine ascorbate and ascorbic acid” and the “inhibition of collagenase activity compared to the control” value [1] is reported as 27%. For the same compound, the “loss of the absorbance peak / decrease of absorption” value [2] was 42%, the “inhibition of tyrosinase activity compared to the control” value (Mushroom tyrosinase) was “no inhibition” and the “inhibition of tyrosinase activity” value (Mushroom tyrosinase; 50 μg/mL) was 10%. The “inhibition of tyrosinase activity” value (Mushroom tyrosinase; 500 μg/mL) was 100%, the “inhibition of mitochondrial metabolism” value (human dermal fibroblasts) was 17% and the “effect on mitochondrial metabolism” value (human dermal fibroblasts) was “not to be inhibitory”. For the same compound, the “effect on p53 expression induced” value [3] was “significantly inhibited”.
